One block for each compound: values may come before it. Activity calls are given as the source filed them. No cut-off for these calls is given here.
What was measured:
[1] = Toxicity in MMTV-PyMT mouse breast cancer model assessed as change in body weight at 70 mg/kg, po administered once daily via gavage for 34 days; format: organism-based; conditions: in vivo, 816 h
Mus musculus = experiment: Antitumor activity against MMTV-PyMT mouse breast cancer model assessed as reduction in tumor growth at 70 mg/kg, po administered once daily via gavage for 34 days measured twice a week during compound dosing; format: functional, organism-based
[2] = Stability in Sprague-Dawley rat liver microsomes assessed as parent compound remaining at 10 uM measured after 30 mins by LC-MS/MS analysis; format: ADME, Microsome; conditions: read-out: Stability
[3] = Stability in CD1 mouse liver microsomes assessed as parent compound remaining at 10 uM measured after 30 mins by LC-MS/MS analysis; format: ADME, Microsome; conditions: read-out: Stability
[4] = Toxicity in MMTV-PyMT mouse breast cancer model assessed as death at 70 mg/kg, po administered once daily via gavage for 34 days; format: organism-based; conditions: in vivo, 816 h
[5] = target: T1, Lysyl oxidase homolog 2 (Homo sapiens) (UniProt Q9Y4K0); experiment: Reversible inhibition of human C-terminal His10-tagged LOXL2 (Met1 to Gln774 residues) expressed in mouse NS0 cells assessed as enzyme residual activity at 10 times IC50 using cadaverine hydrochloride as substrate preincubated for 1 hr followed by 100-fold enzyme-compound mixture dilution in …; format: cell-based
T1 sequence (whole entry): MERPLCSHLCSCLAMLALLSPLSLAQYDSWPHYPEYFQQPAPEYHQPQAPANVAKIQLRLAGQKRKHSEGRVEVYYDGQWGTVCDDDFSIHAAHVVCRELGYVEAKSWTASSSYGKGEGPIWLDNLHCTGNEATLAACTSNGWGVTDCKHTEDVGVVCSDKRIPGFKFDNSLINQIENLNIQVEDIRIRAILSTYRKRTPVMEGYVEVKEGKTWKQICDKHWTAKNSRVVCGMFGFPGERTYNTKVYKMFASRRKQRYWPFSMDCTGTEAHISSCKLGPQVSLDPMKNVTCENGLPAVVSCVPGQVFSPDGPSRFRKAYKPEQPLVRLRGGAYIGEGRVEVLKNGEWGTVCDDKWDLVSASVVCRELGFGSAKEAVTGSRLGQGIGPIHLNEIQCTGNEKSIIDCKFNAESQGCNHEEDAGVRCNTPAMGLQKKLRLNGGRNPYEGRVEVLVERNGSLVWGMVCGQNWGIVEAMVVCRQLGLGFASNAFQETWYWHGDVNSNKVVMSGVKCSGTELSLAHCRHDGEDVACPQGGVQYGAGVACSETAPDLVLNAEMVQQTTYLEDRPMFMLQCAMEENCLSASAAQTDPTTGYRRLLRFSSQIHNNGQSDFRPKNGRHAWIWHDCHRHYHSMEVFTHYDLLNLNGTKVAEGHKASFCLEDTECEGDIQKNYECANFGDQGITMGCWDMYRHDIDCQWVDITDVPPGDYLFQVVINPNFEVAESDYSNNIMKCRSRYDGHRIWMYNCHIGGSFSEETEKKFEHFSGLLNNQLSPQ

[6] = Inhibition of pig skin-derived LOX using cadaverine hydrochloride as substrate preincubated for 1 hr followed by substrate addition by ROS-Glo assay; design: species or system Sus scrofa

Structure (SMILES): CCc1cc(-c2cnn(C)c2)cc(S(=O)(=O)c2cnc(CN)s2)c1
Activity [1]: Non-Toxic
Activity (Mus musculus): Active
remaining at 0.5 h, 10 µM [2]: 82%
remaining at 0.5 h, 10 µM [3]: 76%
Activity [4]: Non-Toxic
Activity [5]: 30%

Structure (SMILES): Cn1cc(-c2cc(S(C)(=O)=O)cc(S(=O)(=O)c3cnc(CN)s3)c2)cn1
IC50 [6]: 2.65 to 3.42 µM

Structure (SMILES): CS(=O)(=O)c1cc(-c2ccccc2)cc(S(=O)(=O)c2ccc(CN)s2)c1
remaining at 0.5 h, 10 µM [3]: 64%
Activity [5]: 80%

Second part, the compound after the results:

IC50 [6]: > 100 µM
Structure (SMILES): Cn1cc(-c2cc(S(C)(=O)=O)cc(S(=O)(=O)c3csc(CN)n3)c2)cn1

IC50 [6]: > 100 µM
Structure (SMILES): CS(=O)(=O)c1cc(-c2ccccc2)cc(S(=O)(=O)c2csc(CN)n2)c1

IC50 [6]: 46.5 to 52 µM
Structure (SMILES): CS(=O)(=O)c1cc(-c2ccccc2)cc(-c2cnc(CN)s2)c1

IC50 [6]: 1.13 to 1.31 µM
Structure (SMILES): CS(=O)(=O)c1cc(Sc2cnc(CN)s2)cc(-c2ccccc2)c1
